Measurements from ChEMBL document CHEMBL5113538, “Discovery of Novel Allosteric EGFR L858R Inhibitors for the Treatment of Non-Small-Cell Lung Cancer as a Single Agent or in Combination with Osimertinib” (J Med Chem, 2022).

Tests used:
[1] = tested on: BaF3; assay: Antitumor activity against mouse BaF3 cells harboring EGFR L858R/C797S mutant allografted in Balb/c nude mouse assessed as in tumor growth inhibition at 10 mg/kg, po administered twice daily measured after 6 days; assay type: functional; settings: BaF3, 144 h, time 6 day, read-out: TGI
[2] = Cmax in CD1 mouse at 10 mg/kg, po administered as single dose measured after 24 hrs by LC-MS/MS analysis; assay type: ADME, organism-based; set-up: dose 10 mg/kg, time 24 hrs, route po; settings: in vivo
[3] = Toxicity in Balb/c nude mouse allografted with mouse BaF3 cells harboring EGFR L858R/C797S mutant assessed as tolerability at 10 mg/kg, po administered twice daily for 20 days; assay type: organism-based; settings: in vivo, 480 h, time 20 day
[4] = target: T1, Glucocorticoid receptor (Homo sapiens, UniProt P04150); assay: Inhibition of glucocorticoid receptor (unknown origin)
T1 sequence (P04150 whole entry): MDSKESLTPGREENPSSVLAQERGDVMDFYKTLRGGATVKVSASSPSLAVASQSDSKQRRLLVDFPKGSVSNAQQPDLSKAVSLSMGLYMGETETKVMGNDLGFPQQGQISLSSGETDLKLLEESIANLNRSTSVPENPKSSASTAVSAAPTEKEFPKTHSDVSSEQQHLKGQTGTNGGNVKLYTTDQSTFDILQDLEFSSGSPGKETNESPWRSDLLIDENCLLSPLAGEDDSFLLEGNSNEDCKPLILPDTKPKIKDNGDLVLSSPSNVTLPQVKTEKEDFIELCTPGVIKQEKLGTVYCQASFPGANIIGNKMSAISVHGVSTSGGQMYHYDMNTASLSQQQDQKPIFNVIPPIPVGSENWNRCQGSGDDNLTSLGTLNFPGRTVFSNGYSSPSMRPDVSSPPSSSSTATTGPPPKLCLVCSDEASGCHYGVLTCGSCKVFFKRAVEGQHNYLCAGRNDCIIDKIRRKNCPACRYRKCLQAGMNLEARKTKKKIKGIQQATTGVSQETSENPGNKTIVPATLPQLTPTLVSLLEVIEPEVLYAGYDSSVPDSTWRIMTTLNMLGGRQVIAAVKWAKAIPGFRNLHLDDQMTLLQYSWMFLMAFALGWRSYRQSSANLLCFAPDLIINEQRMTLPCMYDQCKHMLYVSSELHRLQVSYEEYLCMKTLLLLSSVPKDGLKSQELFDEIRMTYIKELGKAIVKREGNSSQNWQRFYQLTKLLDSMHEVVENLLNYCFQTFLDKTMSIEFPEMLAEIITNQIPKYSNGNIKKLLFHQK

[5] = Tlast in CD1 mouse at 10 mg/kg, po administered as single dose measured after 24 hrs by LC-MS/MS analysis; assay type: ADME, organism-based; settings: in vivo
[6] = target: T2, Muscarinic acetylcholine receptor M2 (Homo sapiens) (UniProt P08172); assay: Inhibition of muscarinic M2 receptor (unknown origin) at 10 uM relative to control
T2 sequence (whole entry): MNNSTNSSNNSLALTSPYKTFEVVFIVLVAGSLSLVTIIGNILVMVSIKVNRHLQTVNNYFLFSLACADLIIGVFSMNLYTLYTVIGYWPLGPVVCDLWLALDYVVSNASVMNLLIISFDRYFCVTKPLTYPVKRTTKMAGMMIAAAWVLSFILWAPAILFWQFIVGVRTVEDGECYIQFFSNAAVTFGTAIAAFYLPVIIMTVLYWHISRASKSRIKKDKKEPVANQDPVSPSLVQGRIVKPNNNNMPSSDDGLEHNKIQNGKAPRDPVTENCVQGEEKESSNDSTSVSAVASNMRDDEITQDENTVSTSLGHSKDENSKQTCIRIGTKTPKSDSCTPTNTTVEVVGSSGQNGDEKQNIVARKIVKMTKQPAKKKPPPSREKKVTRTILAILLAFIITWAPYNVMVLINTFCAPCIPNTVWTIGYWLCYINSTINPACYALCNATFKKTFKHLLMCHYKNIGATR

[7] = tested on: NCI-H1975; assay: Antitumor activity against human NCI-H1975 cells harboring EGFR L858R/T790M mutant xenografted in Balb/c nude mouse assessed as in tumor growth inhibition at 10 mg/kg, po administered twice daily measured after 14 days; assay type: functional; settings: NCI-H1975, 336 h, time 14 day, read-out: TGI
[8] = tested on: L-363; assay: Antiproliferative activity against human L-363 cells assessed as cell growth inhibition; assay type: functional
[9] = target: Angiotensin-converting enzyme (Homo sapiens, UniProt P12821); assay: Inhibition of angiotensin converting enzyme (unknown origin) at 10 uM relative to control
Sequence of Angiotensin-converting enzyme (P12821 whole entry): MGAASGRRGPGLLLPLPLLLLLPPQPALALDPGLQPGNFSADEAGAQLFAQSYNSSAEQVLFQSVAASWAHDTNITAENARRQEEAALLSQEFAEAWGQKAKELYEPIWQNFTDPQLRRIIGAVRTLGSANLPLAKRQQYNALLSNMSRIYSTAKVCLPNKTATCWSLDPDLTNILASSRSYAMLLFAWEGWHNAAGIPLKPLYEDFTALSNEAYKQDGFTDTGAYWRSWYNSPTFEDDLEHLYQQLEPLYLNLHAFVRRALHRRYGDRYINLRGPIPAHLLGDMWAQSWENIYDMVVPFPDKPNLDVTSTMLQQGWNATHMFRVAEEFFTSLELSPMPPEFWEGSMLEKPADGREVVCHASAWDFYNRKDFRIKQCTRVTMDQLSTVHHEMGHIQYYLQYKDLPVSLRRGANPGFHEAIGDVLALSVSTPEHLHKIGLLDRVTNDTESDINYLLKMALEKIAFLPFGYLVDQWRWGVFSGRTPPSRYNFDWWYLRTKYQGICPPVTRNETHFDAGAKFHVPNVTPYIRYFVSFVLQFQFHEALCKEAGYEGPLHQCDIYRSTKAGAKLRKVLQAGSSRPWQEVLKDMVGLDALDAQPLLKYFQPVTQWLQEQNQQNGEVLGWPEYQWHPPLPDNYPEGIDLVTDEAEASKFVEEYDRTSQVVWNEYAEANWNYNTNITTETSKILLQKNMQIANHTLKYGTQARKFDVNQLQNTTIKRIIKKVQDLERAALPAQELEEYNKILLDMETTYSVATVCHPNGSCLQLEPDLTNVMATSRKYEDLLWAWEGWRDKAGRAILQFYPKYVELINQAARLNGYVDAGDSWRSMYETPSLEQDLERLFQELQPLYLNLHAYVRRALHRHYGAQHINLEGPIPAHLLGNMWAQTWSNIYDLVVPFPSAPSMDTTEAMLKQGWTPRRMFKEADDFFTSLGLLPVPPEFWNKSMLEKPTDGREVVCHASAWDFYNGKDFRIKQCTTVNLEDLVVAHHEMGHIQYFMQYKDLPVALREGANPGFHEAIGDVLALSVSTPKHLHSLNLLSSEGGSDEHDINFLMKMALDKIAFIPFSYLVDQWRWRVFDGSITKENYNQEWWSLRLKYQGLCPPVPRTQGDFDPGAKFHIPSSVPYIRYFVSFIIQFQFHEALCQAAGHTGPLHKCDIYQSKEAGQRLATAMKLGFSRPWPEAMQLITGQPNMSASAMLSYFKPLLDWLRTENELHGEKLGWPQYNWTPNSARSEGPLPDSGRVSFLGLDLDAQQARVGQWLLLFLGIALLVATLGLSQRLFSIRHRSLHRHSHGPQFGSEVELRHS

[10] = tested on: SU-DHL-6; assay: Antiproliferative activity against human SU-DHL-6 cells assessed as cell growth inhibition; assay type: functional
[11] = target: T3, Adenosine receptor A3 (Homo sapiens, UniProt P0DMS8); assay: Inhibition of adenosine A3 receptor (unknown origin)
T3 sequence (P0DMS8 whole entry): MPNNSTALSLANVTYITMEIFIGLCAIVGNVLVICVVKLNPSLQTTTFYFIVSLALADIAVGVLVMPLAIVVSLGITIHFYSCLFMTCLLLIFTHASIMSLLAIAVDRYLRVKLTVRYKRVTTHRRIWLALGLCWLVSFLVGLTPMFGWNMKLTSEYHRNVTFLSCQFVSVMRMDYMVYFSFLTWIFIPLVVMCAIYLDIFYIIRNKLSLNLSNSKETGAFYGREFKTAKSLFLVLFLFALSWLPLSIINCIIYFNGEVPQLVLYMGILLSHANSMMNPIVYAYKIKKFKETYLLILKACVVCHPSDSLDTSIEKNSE

[12] = target: Epidermal growth factor receptor (Homo sapiens, UniProt P00533, C797S/L858R)
Sequence of Epidermal growth factor receptor (P00533 25-1210 C797S/L858R limits assumed): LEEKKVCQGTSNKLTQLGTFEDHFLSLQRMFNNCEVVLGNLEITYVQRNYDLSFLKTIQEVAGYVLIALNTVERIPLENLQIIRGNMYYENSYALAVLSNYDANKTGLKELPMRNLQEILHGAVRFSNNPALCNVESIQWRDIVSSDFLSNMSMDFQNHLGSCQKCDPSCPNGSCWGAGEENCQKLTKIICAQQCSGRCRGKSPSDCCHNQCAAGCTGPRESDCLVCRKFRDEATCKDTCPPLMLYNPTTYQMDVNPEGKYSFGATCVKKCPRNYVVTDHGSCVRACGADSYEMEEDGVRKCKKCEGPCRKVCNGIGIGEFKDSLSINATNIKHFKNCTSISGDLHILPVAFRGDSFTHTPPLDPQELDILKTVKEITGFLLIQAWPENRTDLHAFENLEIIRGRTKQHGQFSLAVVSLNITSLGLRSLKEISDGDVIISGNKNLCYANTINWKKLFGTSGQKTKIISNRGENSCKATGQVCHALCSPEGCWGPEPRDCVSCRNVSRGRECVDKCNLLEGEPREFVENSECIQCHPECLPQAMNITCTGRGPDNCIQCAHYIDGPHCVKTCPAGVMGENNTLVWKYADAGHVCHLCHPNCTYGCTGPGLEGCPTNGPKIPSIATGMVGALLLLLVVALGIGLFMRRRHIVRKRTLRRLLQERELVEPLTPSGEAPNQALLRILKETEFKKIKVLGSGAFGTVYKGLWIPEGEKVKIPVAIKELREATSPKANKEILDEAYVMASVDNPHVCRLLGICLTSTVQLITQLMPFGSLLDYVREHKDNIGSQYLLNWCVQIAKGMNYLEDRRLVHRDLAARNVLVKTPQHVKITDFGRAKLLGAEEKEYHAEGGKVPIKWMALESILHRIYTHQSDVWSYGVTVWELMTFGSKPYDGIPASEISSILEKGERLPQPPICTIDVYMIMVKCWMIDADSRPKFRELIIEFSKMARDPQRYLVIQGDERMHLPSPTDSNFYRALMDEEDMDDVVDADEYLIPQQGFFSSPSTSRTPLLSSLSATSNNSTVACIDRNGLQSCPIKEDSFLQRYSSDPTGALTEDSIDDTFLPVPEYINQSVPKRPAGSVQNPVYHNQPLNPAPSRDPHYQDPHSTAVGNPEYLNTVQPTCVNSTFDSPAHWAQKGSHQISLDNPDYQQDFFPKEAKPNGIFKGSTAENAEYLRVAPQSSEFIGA

[13] = target: T4, Glucocorticoid receptor (Homo sapiens) (UniProt P04150); assay: Inhibition of glucocorticoid receptor (unknown origin) at 10 uM relative to control
T4 sequence (whole entry): T1 sequence (P04150 whole entry)

[14] = tested on: BaF3; assay: Cytotoxicity against mouse BaF3 cells expressing EGFR L858R/T790M/C797S mutant assessed as reduction in cell viability measured after 72 hrs by cell titre glo luminescence assay; assay type: functional, cell-based; settings: BaF3, 72 h

- Cmax [2]: 135 ng/mL
- IC50 [4]: 3200 nM
- Tlast [5]: 24 h
- inhibition [6]: 91%
- inhibition [9]: 96%
- GI50 [10]: 1460 nM
- IC50 [11]: 200 nM
- IC50 [12]: 20 nM
- inhibition [13]: 90%
SMILES: Cc1c(C#Cc2ccc(CN3CCC(CO)CC3)cc2)cc(C(F)F)c2cn(C(C(=O)Nc3nccs3)c3ncn4c3CCC43CC3)nc12 (centres undefined)
- inhibition in vivo at 10 mg/kg [1]: 84%
- Activity [3]: Non-Toxic
- inhibition in vivo at 10 mg/kg [7]: 69%
- GI50 [8]: 1320 nM
- IC50 [14]: 1 nM
